Results from ChEMBL document CHEMBL3272310, “Effect of chain length on critical micelle formation and protein binding of quaternary ammonium compounds” (J Med Chem, 1976).

What was measured:
[1] = Critical micelle concentration of the compound; assay type: ADME
Albumin = Albumin (Bos taurus, UniProt P02769); test: Binding affinity to bovine serum albumin; conditions: cattle, isolated protein
[2] = 1-Octanol-water partition coefficient, log P of the compound; assay type: physicochemical

Albumin, sequence (P02769 whole entry): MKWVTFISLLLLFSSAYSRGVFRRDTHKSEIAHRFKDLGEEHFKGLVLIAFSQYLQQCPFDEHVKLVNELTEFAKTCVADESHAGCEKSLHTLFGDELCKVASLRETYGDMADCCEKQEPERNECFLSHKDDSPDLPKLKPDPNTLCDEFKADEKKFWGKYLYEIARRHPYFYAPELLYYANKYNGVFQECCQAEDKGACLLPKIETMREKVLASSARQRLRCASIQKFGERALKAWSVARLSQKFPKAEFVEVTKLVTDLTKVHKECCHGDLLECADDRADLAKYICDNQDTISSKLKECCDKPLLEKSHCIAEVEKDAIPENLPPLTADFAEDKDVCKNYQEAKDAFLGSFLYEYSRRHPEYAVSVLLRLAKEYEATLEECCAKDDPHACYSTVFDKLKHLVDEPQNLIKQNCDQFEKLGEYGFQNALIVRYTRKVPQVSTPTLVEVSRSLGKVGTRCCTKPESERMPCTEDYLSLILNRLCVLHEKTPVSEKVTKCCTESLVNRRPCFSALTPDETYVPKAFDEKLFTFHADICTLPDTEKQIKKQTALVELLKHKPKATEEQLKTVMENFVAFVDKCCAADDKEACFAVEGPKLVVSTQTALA

Q: Which log1/CMC [1] does the source give for `CCCCCCCCCCCCCCCCCC[N+](C)(C)Cc1ccccc1.[Cl-]` here?
A: The log1/CMC was 4.48.

Q: With `CCCCCCCCCC[N+](C)(C)Cc1ccccc1.[Cl-]` as the molecule, how does the log1/CMC [1] read?
A: Its log1/CMC is 1.47.

Q: And the “log K” value (Albumin)?
A: The value was 5.

Q: Which log1/CMC [1] does the source give for `CCCCCCCC[N+](C)(C)Cc1ccccc1.[Cl-]` here?
A: The log1/CMC was 0.67.

Q: What about the “log K” value (Albumin) of the same molecule?
A: Its value is 4.82.

Q: What does the source list for `CCCCCCCCCCC[N+](C)(C)Cc1ccccc1.[Cl-]`?
A: log1/CMC [1]: 1.85; log K (Albumin): 4.55

Q: With `CCCCCCCCCCCCCCC[N+](C)(C)Cc1ccccc1.[Cl-]` as the molecule, how does the log1/CMC [1] read?
A: The log1/CMC was 3.22.

Q: What about the “log K” value (Albumin) of the same molecule?
A: Its value is 3.57.

Q: Which log1/CMC [1] does the source give for `CCCCCCCCCCCCCCCCC[N+](C)(C)Cc1ccccc1.[Cl-]` here?
A: The log1/CMC was 4.

Q: And the “log K” value (Albumin)?
A: Its value is 3.55.

Q: With `CCCCCCCCCCCCCCCCCCC[N+](C)(C)Cc1ccccc1.[Cl-]` as the molecule, how does the log1/CMC [1] read?
A: The log1/CMC was 4.74.

Q: Which logP [2] does the source give for `CC[N+](C)(C)Cc1ccccc1` here?
A: Its logP is -3.38.

Q: For `CCCC[N+](C)(C)Cc1ccccc1`, which logP [2] is on record?
A: Its logP is -1.85.

Q: For `CCCCCC[N+](C)(C)Cc1ccccc1`, which logP [2] is on record?
A: The logP was -1.53.

Q: With `CCCCCCCC[N+](C)(C)Cc1ccccc1` as the molecule, how does the logP [2] read?
A: Its logP is -0.29.

Q: What does the source list for `CCCCCCCCCCCCC[N+](C)(C)Cc1ccccc1.[Cl-]` [BENZALKONIUM CHLORIDE]?
A: log1/CMC [1]: 2.57; log K (Albumin): 3.85

Q: With `CCCCCCCCCCCC[N+](C)(C)Cc1ccccc1.[Cl-]` [BENZODODECINIUM CHLORIDE] as the molecule, how does the log1/CMC [1] read?
A: Its log1/CMC is 2.16.

Q: What about the “log K” value (Albumin) of the same molecule?
A: Its value is 4.26.

Q: What does the source list for `CCCCCCCCCCCCCCCC[N+](C)(C)Cc1ccccc1.[Cl-]` [CETALKONIUM CHLORIDE]?
A: log1/CMC [1]: 3.62; log K (Albumin): 3.49

Q: Which log1/CMC [1] does the source give for `CCCCCCCCCCCCCC[N+](C)(C)Cc1ccccc1.[Cl-]` [MIRISTALKONIUM CHLORIDE] here?
A: Its log1/CMC is 2.92.

Q: And the “log K” value (Albumin)?
A: The value was 3.51.
